pIC50: −log10 of the molar value. Where “and” joins values, the source holds several entries; their conditions need not be identical. Equal entries are not always repeated.
System: 598228-144-R-J1-PDC complex spheroids, viability
Experiment: Anticancer human tumor 598228-144-R-J1-PDC patient-derived serous endometrial adenocarcinoma cell line growth inhibition [CLK]
Settings: for viability, T/C: stronger effect = lower value; active = viability on the fitted dose curve at most 10% of control; inactive = the rest
Procedure, shortened: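 Multi-cell-type spheroids combined patient-derived tumor cells with HUVEC endothelial cells and human mesenchymal stem cells. Paired agents were dosed in half-log steps down from about clinical Cmax, or from 10 microM where Cmax was unknown.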

[1] = curve of first compound, second compound 0.0316 µM
[2] = curve of first compound, second compound 0.1 µM
[3] = curve of first compound, second compound 0.316 µM
[4] = curve of first compound, second compound 1 µM
[5] = curve of first compound, second compound 3.16 µM
[6] = curve of first compound, second compound 10 µM
[7] = second compound 0.0316 µM, first compound 0.00949 µM
[8] = second compound 0.0316 µM, first compound 0.03 µM
[9] = second compound 0.0316 µM, first compound 0.0949 µM
[10] = second compound 0.0316 µM, first compound 0.3 µM
[11] = second compound 0.1 µM, first compound 0.00949 µM
[12] = second compound 0.1 µM, first compound 0.03 µM
[13] = second compound 0.1 µM, first compound 0.0949 µM
[14] = second compound 0.1 µM, first compound 0.3 µM
[15] = second compound 0.316 µM, first compound 0.00949 µM
[16] = second compound 0.316 µM, first compound 0.03 µM
[17] = second compound 0.316 µM, first compound 0.0949 µM
[18] = second compound 0.316 µM, first compound 0.3 µM
[19] = second compound 1 µM, first compound 0.00949 µM
[20] = second compound 1 µM, first compound 0.03 µM
[21] = second compound 1 µM, first compound 0.0949 µM
[22] = second compound 1 µM, first compound 0.3 µM
[23] = second compound 3.16 µM, first compound 0.00949 µM
[24] = second compound 3.16 µM, first compound 0.03 µM
[25] = second compound 3.16 µM, first compound 0.0949 µM
[26] = second compound 3.16 µM, first compound 0.3 µM
[27] = second compound 10 µM, first compound 0.00949 µM
[28] = second compound 10 µM, first compound 0.03 µM
[29] = second compound 10 µM, first compound 0.0949 µM
[30] = second compound 10 µM, first compound 0.3 µM
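Note: spheroids exposed to compounds for seven days before readout.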
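Throughout, for viability, T/C: 100% = DMSO vehicle control wells.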

CC(C)CC(NC(=O)C(Cc1ccccc1)NC(=O)c1cnccn1)B(O)O (stereo unspecified) + CNC(=O)c1ccc(Nc2nc(OC3CCCC3)c3c(-c4ccc5nc(C)oc5c4)c[nH]c3n2)c(OC)c1
8.33: pIC50 [1]
active: viability, T/C [7] 2.81% | viability, T/C [8] 0.55% | viability, T/C [9] 0.7% | viability, T/C [10] 0.37% | viability, T/C [11] 3.14% | viability, T/C [12] 0.58% | viability, T/C [13] 0.44% | viability, T/C [14] 0.49% | viability, T/C [15] 3.51% | viability, T/C [16] 0.83% | viability, T/C [17] 0.51% | viability, T/C [18] 0.91% | viability, T/C [19] 1.31% | viability, T/C [20] 0.56% | viability, T/C [21] 0.77% | viability, T/C [22] 1.17% | viability, T/C [23] 0.9% | viability, T/C [24] 0.44% | viability, T/C [25] 2.9% | viability, T/C [26] 1.57% | viability, T/C [27] 2.24% | viability, T/C [28] 1.62% | viability, T/C [29] 0.46% | viability, T/C [30] 2.11%
8.30: pIC50 [2]
8.66: pIC50 [4]
8.71: pIC50 [6]
8.68: pIC50 [5]
8.46: pIC50 [3]
inactive: viability, T/C (second compound 0.0316 µM, first compound 0.000949 µM) 111% | viability, T/C (second compound 0.0316 µM, first compound 0.003 µM) 79.8% | viability, T/C (second compound 0.1 µM, first compound 0.000949 µM) 127% | viability, T/C (second compound 0.1 µM, first compound 0.003 µM) 88.8% | viability, T/C (second compound 0.316 µM, first compound 0.000949 µM) 116% | viability, T/C (second compound 0.316 µM, first compound 0.003 µM) 56.7% | viability, T/C (second compound 1 µM, first compound 0.000949 µM) 128% | viability, T/C (second compound 1 µM, first compound 0.003 µM) 19.7% | viability, T/C (second compound 3.16 µM, first compound 0.000949 µM) 128% | viability, T/C (second compound 3.16 µM, first compound 0.003 µM) 13.9% | viability, T/C (second compound 10 µM, first compound 0.000949 µM) 115% | viability, T/C (second compound 10 µM, first compound 0.003 µM) 11.9%

NC(=O)C(=Cn1cnc(-c2cc(C(F)(F)F)cc(C(F)(F)F)c2)n1)c1cncnc1 + CNC(=O)c1ccc(Nc2nc(OC3CCCC3)c3c(-c4ccc5nc(C)oc5c4)c[nH]c3n2)c(OC)c1
6.80: pIC50 [6]
6.28: pIC50 [2]
6.44: pIC50 [1]
6.33: pIC50 [4]
inactive: viability, T/C [7] 110% | viability, T/C [8] 97.5% | viability, T/C [9] 93.9% | viability, T/C [10] 53.3% | viability, T/C (second compound 0.0316 µM, first compound 0.949 µM) 30.1% | viability, T/C (second compound 0.0316 µM, first compound 3 µM) 25.7% | viability, T/C [11] 101% | viability, T/C [12] 99.8% | viability, T/C [13] 97.9% | viability, T/C [14] 63.8% | viability, T/C (second compound 0.1 µM, first compound 0.949 µM) 36.4% | viability, T/C (second compound 0.1 µM, first compound 3 µM) 28.7% | viability, T/C [15] 88.1% | viability, T/C [16] 95.9% | viability, T/C [17] 82.3% | viability, T/C [18] 64% | viability, T/C (second compound 0.316 µM, first compound 0.949 µM) 43.5% | viability, T/C (second compound 0.316 µM, first compound 3 µM) 18.2% | viability, T/C [19] 97.5% | viability, T/C [20] 97.3% | viability, T/C [21] 85% | viability, T/C [22] 55.4% | viability, T/C (second compound 1 µM, first compound 0.949 µM) 37.1% | viability, T/C (second compound 1 µM, first compound 3 µM) 10.4% | viability, T/C [23] 96.8% | viability, T/C [24] 73.6% | viability, T/C [25] 68.2% | viability, T/C [26] 54.3% | viability, T/C (second compound 3.16 µM, first compound 0.949 µM) 30% | viability, T/C (second compound 3.16 µM, first compound 3 µM) 10.9% | viability, T/C [27] 88.1% | viability, T/C [28] 72.3% | viability, T/C [29] 58.7% | viability, T/C [30] 42% | viability, T/C (second compound 10 µM, first compound 0.949 µM) 19.6%
active: viability, T/C (second compound 10 µM, first compound 3 µM) 4.93%
6.19: pIC50 [3]
6.52: pIC50 [5]

COc1c(OCCCN2CCOCC2)ccc2c3n(c(=NC(=O)c4cnc(N)nc4)nc12)CCN3
7.46 and 7.76: pIC50 (curve of compound)
active: viability, T/C (compound 1 µM) 8.63% and 7.29%
inactive: viability, T/C (compound 0.00316 µM) 80.5% and 77.9% | viability, T/C (compound 0.01 µM) 65.1% and 53.3% | viability, T/C (compound 0.0316 µM) 52.9% and 45.3% | viability, T/C (compound 0.1 µM) 34.8% and 27.9% | viability, T/C (compound 0.316 µM) 19.3% and 14.2%
